Among the data in patent publication US20220340597A1, “HEXAHYDRO-1H-PYRAZINO[1,2-A]PYRAZINE COMPOUNDS FOR THE TREATMENT OF AUTOIMMUNE DISEASE” (Hoffmann-La Roche Inc., priority 2019, published 2022) are IC50 values, retold here.

For one assay, the target named is T1, human TLR8 (Homo sapiens, UniProt Q9NR97).
T1 sequence (Q9NR97 27-1041): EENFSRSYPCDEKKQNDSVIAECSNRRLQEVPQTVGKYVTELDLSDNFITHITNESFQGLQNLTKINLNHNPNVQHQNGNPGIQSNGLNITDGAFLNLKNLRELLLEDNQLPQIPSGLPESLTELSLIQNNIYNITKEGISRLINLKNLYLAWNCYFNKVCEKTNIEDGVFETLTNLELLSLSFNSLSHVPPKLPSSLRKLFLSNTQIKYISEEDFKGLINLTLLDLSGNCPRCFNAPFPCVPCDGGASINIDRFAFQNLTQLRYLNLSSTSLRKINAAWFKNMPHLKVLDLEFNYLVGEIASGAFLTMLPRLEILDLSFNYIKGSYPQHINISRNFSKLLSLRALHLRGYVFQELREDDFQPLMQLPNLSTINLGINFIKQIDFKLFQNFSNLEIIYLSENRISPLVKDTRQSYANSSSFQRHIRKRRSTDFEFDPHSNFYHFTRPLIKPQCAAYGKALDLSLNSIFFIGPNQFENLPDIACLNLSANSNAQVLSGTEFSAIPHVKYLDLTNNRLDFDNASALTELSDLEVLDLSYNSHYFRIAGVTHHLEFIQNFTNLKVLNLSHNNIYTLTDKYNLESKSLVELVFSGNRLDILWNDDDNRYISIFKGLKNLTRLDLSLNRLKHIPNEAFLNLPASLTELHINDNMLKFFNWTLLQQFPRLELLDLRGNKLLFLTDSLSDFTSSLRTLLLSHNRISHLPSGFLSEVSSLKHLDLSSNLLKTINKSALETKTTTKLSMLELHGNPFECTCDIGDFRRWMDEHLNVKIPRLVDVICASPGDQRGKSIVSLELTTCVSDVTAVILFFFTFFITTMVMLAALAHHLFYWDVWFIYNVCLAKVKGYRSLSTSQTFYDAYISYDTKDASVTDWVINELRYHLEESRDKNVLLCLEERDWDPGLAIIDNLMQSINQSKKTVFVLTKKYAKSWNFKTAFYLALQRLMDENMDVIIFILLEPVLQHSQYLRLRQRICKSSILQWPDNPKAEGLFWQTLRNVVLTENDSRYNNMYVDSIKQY
Briefly: HEK293-Blue-hTLR-8 cells assay.

In the next assay the target is T2, human TLR9 (Homo sapiens, UniProt Q9NR96).
T2 construct: host or cells: HEK293 (HEK-Blue hTLR9)
T2 sequence (Q9NR96 26-1032): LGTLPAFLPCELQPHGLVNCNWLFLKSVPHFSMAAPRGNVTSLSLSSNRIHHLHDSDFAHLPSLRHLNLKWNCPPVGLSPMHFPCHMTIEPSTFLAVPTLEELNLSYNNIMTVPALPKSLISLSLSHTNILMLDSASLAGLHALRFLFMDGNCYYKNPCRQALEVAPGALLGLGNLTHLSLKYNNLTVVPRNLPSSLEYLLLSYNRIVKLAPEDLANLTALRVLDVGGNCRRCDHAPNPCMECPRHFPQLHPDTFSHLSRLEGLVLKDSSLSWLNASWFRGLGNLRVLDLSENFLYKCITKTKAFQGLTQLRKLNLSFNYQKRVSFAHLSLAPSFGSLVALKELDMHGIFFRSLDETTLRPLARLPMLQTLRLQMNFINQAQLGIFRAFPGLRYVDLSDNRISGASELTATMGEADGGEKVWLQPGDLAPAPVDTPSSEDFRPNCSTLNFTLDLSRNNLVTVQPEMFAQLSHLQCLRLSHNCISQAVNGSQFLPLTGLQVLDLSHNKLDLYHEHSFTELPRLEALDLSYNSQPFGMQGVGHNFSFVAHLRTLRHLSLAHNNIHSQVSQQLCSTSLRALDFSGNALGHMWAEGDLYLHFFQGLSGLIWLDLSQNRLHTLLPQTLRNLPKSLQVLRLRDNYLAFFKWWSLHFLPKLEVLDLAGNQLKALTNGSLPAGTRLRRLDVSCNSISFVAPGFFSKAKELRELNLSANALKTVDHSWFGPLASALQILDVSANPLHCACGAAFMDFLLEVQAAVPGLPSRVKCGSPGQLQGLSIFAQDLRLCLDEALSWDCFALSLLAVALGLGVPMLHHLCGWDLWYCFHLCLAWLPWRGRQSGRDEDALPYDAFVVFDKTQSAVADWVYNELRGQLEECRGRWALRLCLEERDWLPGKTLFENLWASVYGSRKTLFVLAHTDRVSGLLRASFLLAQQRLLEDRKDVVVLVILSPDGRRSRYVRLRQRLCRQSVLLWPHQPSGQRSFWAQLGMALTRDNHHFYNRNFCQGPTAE
Description: HEK293-Blue-hTLR-9 cells assay. Conditions: HEK293-Blue-hTLR9 cells, ODN2006 stimulation, 20 hrs, SEAP reporter; read-out: HEK/hTLR9 IC50. The assay is classed as cell-based. The procedure: The following tests were carried out in order to determine the activity of the compounds of formula (I) and (Ia) in HEK293-Blue-hTLR-7/8/9 cells assay.
HEK293-Blue-hTLR-9 Cells Assay:
A stable HEK293-Blue-hTLR-9 cell line was purchased from InvivoGen (Cat. #: hkb-htlr9, San Diego, Calif., USA). These cells were originally designed for studying the stimulation of human TLR9 by monitoring the activation of NF-κB. A SEAP (secreted embryonic alkaline phosphatase) reporter gene was placed under the control of the […] minimal promoter fused to five NF-κB and AP-1-binding sites. The SEAP was induced by activating NF-κB and AP-1 via stimulating HEK-Blue hTLR9 cells with TLR9 ligands. Therefore, the reporter expression was declined by TLR9 antagonist under the stimulation of a ligand, such as ODN2006 (Cat. #: tlr1-2006-1, Invivogen, San Diego, Calif., USA), for incubation of 20 hrs. The cell culture supernatant SEAP reporter activity was determined using QUANTI-Blue™ kit (Cat. #: rep-qb1, Invivogen, San Diego, Calif., USA) at a wavelength of 640 nm, a detection medium that turns purple or blue in the presence of alkaline phosphatase.
Then 20 μL of the supernatant from each well was incubated with 180 μL Quanti-blue substrate solution at 37° C. for 2 h and the absorbance was read at 620-655 nm using a spectrophotometer. The signaling pathway that TLR9 activation leads to downstream NF-κB activation has been widely accepted, and therefore similar reporter assay was modified for evaluating TLR9 antagonist.

As to `[2H]c1ccc2c(N3C[C@@H]4CN(c5ncc(C(=O)N6CC7(CN(C)C7)C6)cc5C)CCN4[C@@H](C)C3)ccc(C#N)c2n1` [Example 103, 5-[(4S,9aR)-4-methyl-8-[3-methyl-5-(6-methyl-2,6-diazaspiro[3.3]heptane-2-carbonyl)-2-pyridyl]-3,4,6,7,9,9a-hexahydro-1H-pyrazino[1,2-a]pyrazin-2-yl]-2-deuterio-quinoline-8-carbonitrile], the IC50 on human TLR8 was found to be 4 nM; on human TLR9, 87 nM.
`C[C@@H]1CN(c2ccc(C#N)c3ncccc23)C[C@@H]2CN(c3cc(N4CCNCC4)ccn3)CCN21` [Example 34, 5-[(4R,9aR)-4-methyl-8-(4-piperazin-1-yl-2-pyridyl)-3,4,6,7,9,9a-hexahydro-1H-pyrazino[1,2-a]pyrazin-2-yl]quinoline-8-carbonitrile]: the values for the IC50 on human TLR8 and at human TLR9 were 14 nM and 42 nM, respectively.
For `[2H]c1ccc2c(N3C[C@@H]4CN(c5ccc(N6C[C@@H](N)[C@H](OC)C6)nc5)CCN4[C@@H](C)C3)ccc(C#N)c2n1` [Example 115, 5-[(4S,9aR)-8-[6-[(3R,4R)-3-amino-4-methoxy-pyrrolidin-1-yl]-3-pyridyl]-4-methyl-3,4,6,7,9,9a-hexahydro-1H-pyrazino[1,2-a]pyrazin-2-yl]-2-deuterio-quinoline-8-carbonitrile] the same measures were 17 nM and 140 nM.
For `[2H]c1ccc2c(N3C[C@@H]4CN(c5ncc(C(=O)N6CC7(CN(C)C7)C6)cc5C)CCN4[C@H](C)C3)ccc(C#N)c2n1` [Example 102, 5-[(4R,9aR)-4-methyl-8-[3-methyl-5-(6-methyl-2,6-diazaspiro[3.3]heptane-2-carbonyl)-2-pyridyl]-3,4,6,7,9,9a-hexahydro-1H-pyrazino[1,2-a]pyrazin-2-yl]-2-deuterio-quinoline-8-carbonitrile] the same measures were 2 nM and 154 nM.
For `CO[C@@H]1CN(c2nc(C)cc(N3CCN4[C@@H](C3)CN(c3ccc(C#N)c5ncccc35)C[C@H]4C)n2)C[C@H]1N` [Example 45, 5-[(4R,9aR)-8-[2-[(3R,4R)-3-amino-4-methoxy-pyrrolidin-1-yl]-6-methyl-pyrimidin-4-yl]-4-methyl-3,4,6,7,9,9a-hexahydro-1H-pyrazino[1,2-a]pyrazin-2-yl]quinoline-8-carbonitrile] the same measures were 28 nM and 81 nM.
Turning to `CO[C@@H]1CN(c2ccc(CCN3CCN4[C@@H](C3)CN(c3ccc(C#N)n5nccc35)C[C@H]4C)cc2)C[C@H]1N` [Example 68, 4-[(4R,9aS)-8-[2-[4-[(3R,4R)-3-amino-4-methoxy-pyrrolidin-1-yl]phenyl]ethyl]-4-methyl-3,4,6,7,9,9a-hexahydro-1H-pyrazino[1,2-a]pyrazin-2-yl]pyrazolo[1,5-a]pyridine-7-carbonitrile], the IC50 is 77 nM at human TLR8 and 41 nM at human TLR9.
Take `Cc1cc(N2CCN3[C@@H](C2)CN(c2ccc(C#N)c4ncccc24)C[C@H]3C)nc(N2CCNCC2)n1` [Example 31, 5-[(4R,9aR)-4-methyl-8-(6-methyl-2-piperazin-1-yl-pyrimidin-4-yl)-3,4,6,7,9,9a-hexahydro-1H-pyrazino[1,2-a]pyrazin-2-yl]quinoline-8-carbonitrile]: the IC50 on human TLR8 stood at 24 nM; at human TLR9, 85 nM.
For `CO[C@@H]1CN(c2ccc(CCN3CCN4[C@@H](C3)CN(c3ccc(C#N)n5ncc(F)c35)C[C@H]4C)cn2)C[C@H]1N` [Example 67, 4-[(4R,9aS)-8-[2-[6-[(3R,4R)-3-amino-4-methoxy-pyrrolidin-1-yl]-3-pyridyl]ethyl]-4-methyl-3,4,6,7,9,9a-hexahydro-1H-pyrazino[1,2-a]pyrazin-2-yl]-3-fluoro-pyrazolo[1,5-a]pyridine-7-carbonitrile] the same measures were 84 nM and 83 nM.
With `C[C@@H]1CN(c2ccc(C#N)c3ncccc23)C[C@@H]2CN(CCc3ccc(N4CC5(CNCCO5)C4)nc3)CCN21` [Example 59, 5-[(4R,9aS)-4-methyl-8-[2-[6-(5-oxa-2,8-diazaspiro[3.5]nonan-2-yl)-3-pyridyl]ethyl]-3,4,6,7,9,9a-hexahydro-1H-pyrazino[1,2-a]pyrazin-2-yl]quinoline-8-carbonitrile], the IC50 against human TLR8 was 28 nM; at human TLR9, 48 nM.
The matching figures for `C[C@@H]1CN(c2ccc(C#N)c3ncccc23)C[C@@H]2CN(Cc3cnc4c(c3)CNCC4)CCN21` [Example 6, 5-[(4R,9aS)-4-methyl-8-(5,6,7,8-tetrahydro-1,6-naphthyridin-3-ylmethyl)-3,4,6,7,9,9a-hexahydro-1H-pyrazino[1,2-a]pyrazin-2-yl]quinoline-8-carbonitrile]: 14 nM and 69 nM.
For `[2H]c1ccc2c(N3C[C@@H]4CN(c5ncc(N6CC(C)(N)C6)cc5C)CCN4[C@@H](C)C3)ccc(C#N)c2n1` [Example 118, 5-[(4S,9aR)-8-[5-(3-amino-3-methyl-azetidin-1-yl)-3-methyl-2-pyridyl]-4-methyl-3,4,6,7,9,9a-hexahydro-1H-pyrazino[1,2-a]pyrazin-2-yl]-2-deuterio-quinoline-8-carbonitrile] the same measures were 6 nM and 148 nM.
Turning to `[2H]c1ccc2c(N3C[C@@H]4CN(c5ccc([C@H]6CNCCO6)cc5)CCN4[C@@H](C)C3)ccc(C#N)c2n1` [Example 107, 5-[(4S,9aS)-4-methyl-8-[4-[(2S)-morpholin-2-yl]phenyl]-3,4,6,7,9,9a-hexahydro-1H-pyrazino[1,2-a]pyrazin-2-yl]-2-deuterio-quinoline-8-carbonitrile], the IC50 amounted to 4 nM against human TLR8 and 146 nM on human TLR9.
